# Measured values as given in the supplement of paper PMC11208160.
# Assay: recombinant UMI read abundance after kanamycin selection (control-corrected) (log10(CPM+1)); higher = more efficient recombination; extreme values may be limits of the assay; sequences stand for … in AGTGCAGAGAAAATCGGCCAGTTTTCTCTGCCTGCAGTCCGCATGCCGTGGGACCCCTTGGGTTCTAACCTGTTGCCTAGATTTATGCAGCGGACTGCCTTTCTCCCAAAGTGATAAACCGG…AGGTTGGTTTCACT; site = the 11-nt donor
# Summary of the method: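 Sequenced counts of recombinant UMIs were turned into CPM, averaged across replicates and scaled with control-derived factors. The reported figure is log10(CPM+1). Those UMIs, each 12 nt long, tagged donor and donor-binding-loop pairs on a plasmid with a promoterless kanamycin gene, screened as a pool in Escherichia coli with IPTG (0.07 mM) plus kanamycin or without selection.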
# 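Further: IS621 bridge recombinase in Escherichia coli cells against a fixed T5 target plasmid.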
row,Sequence,recombinant UMI read abundance (log10)
1,TACGTTTCATGGACCGGTTTTCCCGGTAATCCGTATTTGCC (site TACGTTTCTGG),1.7
2,GTTAGAACATGGACCGGTTTTCCCGGTAATCCGTATTTGGC (site GTTAGAACTGC),1.59
3,GCTAATACATGGACCGGTTTTCCCGGTAATCCGTATTTGGC (site GCTAATACTGC),0.0276
4,CGGAATCCATGGACCGGTTTTCCCGGTAATCCGTATTTGTT (site GGGAAGCCTAA),0.0234
5,CTTCTCTCATGGACCGGTTTTCCCGGTAATCCGTATTTGTT (site CTTCTCTCTTA),0.757
6,GCGAACCCATGGACCGGTTTTCCCGGTAATCCGTATTTGGG (site GCGAAACCTCC),0.013
7,CTCGCTCCATGGACCGGTTTTCCCGGTAATCCGTATTTGAG (site CTCGCTCCTCT),0.0649
8,CTTCTCTCATGGACCGGTTTTCCCGGTAATCCGTATTTGTG (site CTTCTCTCTCA),0.154
9,CAAGCGCCATGGACCGGTTTTCCCGGTAATCCGTATTTGTG (site CAAGCACCTCA),0.0231
10,CCCGTCTCATGGACCGGTTTTCCCGGTAATCCGTATTTGGG (site CCCTTCTCTCC),0.018
11,CACGTACCATGGACCGGTTTTCCCGGTAATCCGTATTTGAA (site CACGTACCTTT),0.24
12,CCGAAAGCATGGACCGGTTTTCCCGGTAATCCGTATTTGAT (site CCAAAAGCTAT),0.501
13,AACCGTGCATGGACCGGTTTTCCCGGTAATCCGTATTTGAT (site AACCGTGCTAT),1.37
14,GACAAACCATGGACCGGTTTTCCCGGTAATCCGTATTTGGT (site GACAAAGCTAC),0
15,CTCGTATCATGGACCGGTTTTCCCGGTAATCCGTATTTGAC (site CTGGTATCTGT),0
16,GAATGGCCATGGACCGGTTTTCCCGGTAATCCGTATTTGCA (site GAATGCCCTTG),0.0091
17,CAAACGCCATGGACCGGTTTTCCCGGTAATCCGTATTTGTG (site CAAACGCCTCA),0.56
18,CGGAATCCATGGACCGGTTTTCCCGGTAATCCGTATTTGTT (site CTGACTCCTAA),0.00378
19,ATAACGCCATGGACCGGTTTTCCCGGTAATCCGTATTTGTC (site ATAACGCCTGA),1.58

row,Sequence,recombinant UMI read abundance (log10)
1,AGGAATACATGGACCGGTTTTCCCGGTAATCCGTATTTGAC (site AGGAGTACTGT),0
2,CTTAATACATGGACCGGTTTTCCCGGTAATCCGTATTTGGC (site CGTAATACTGC),0.0463
3,CGTTTGACATGGACCGGTTTTCCCGGTAATCCGTATTTGCT (site CGTTTGACTAG),2.38
4,CTTAAAGCATGGACCGGTTTTCCCGGTAATCCGTATTTGAT (site CCTAAAGCTAT),0
5,AATGTGTCATGGACCGGTTTTCCCGGTAATCCGTATTTGAT (site AATGTGTCTCT),0.003
6,GACAAACCATGGACCGGTTTTCCCGGTAATCCGTATTTGGT (site AACAAACCTAC),0
7,CCCCACACATGGACCGGTTTTCCCGGTAATCCGTATTTGTA (site CCCAACACTTA),0
8,GACCGAGCATGGACCGGTTTTCCCGGTAATCCGTATTTGTA (site GACCGAGCTTA),1.19
9,GCTCGAGCATGGACCGGTTTTCCCGGTAATCCGTATTTGCA (site GTTCGAGCTTG),0.655
10,TCCAACGCATGGACCGGTTTTCCCGGTAATCCGTATTTGCG (site TCCATCGCTCG),0.00881
11,GTAGTCGCATGGACCGGTTTTCCCGGTAATCCGTATTTGCA (site GTAGTCGCTCG),1.85
12,CGATCATCATGGACCGGTTTTCCCGGTAATCCGTATTTGCT (site CGGTCATCTAG),0
13,ACATCTACATGGACCGGTTTTCCCGGTAATCCGTATTTGTG (site ACATCTACTAA),0.044
14,TGTACGTCATGGACCGGTTTTCCCGGTAATCCGTATTTGTT (site TGTACGTCTAA),0.00887
15,ACAGTATCATGGACCGGTTTTCCCGGTAATCCGTATTTGCG (site ACAGTATCTGG),2.14
16,CGGTCGACATGGACCGGTTTTCCCGGTAATCCGTATTTGGG (site CTGTCGACTCC),0.0407
17,AGGATTACATGGACCGGTTTTCCCGGTAATCCGTATTTGAC (site AGGAGTACTGT),0
18,GGAGACTCATGGACCGGTTTTCCCGGTAATCCGTATTTGGC (site GGAGACTCTGC),0.784
19,CAAGGCCCATGGACCGGTTTTCCCGGTAATCCGTATTTGTT (site CAAGGCCCTAA),0.0195

row,Sequence,recombinant UMI read abundance (log10)
1,GCATGGCCATGGACCGGTTTTCCCGGTAATCCGTATTTGCA (site GTATGGCCTTG),0.0194
2,ATTGAGGCATGGACCGGTTTTCCCGGTAATCCGTATTTGGT (site ATTGAGGCTAC),0.927
3,CTCCCTACATGGACCGGTTTTCCCGGTAATCCGTATTTGTG (site CTCCCTACTCG),0.143
4,GTCACCCCATGGACCGGTTTTCCCGGTAATCCGTATTTGGT (site GTCACCCCTAC),0.425
5,GGGAATCCATGGACCGGTTTTCCCGGTAATCCGTATTTGTC (site GGGAATCCTGA),0
6,GTTAGAGCATGGACCGGTTTTCCCGGTAATCCGTATTTGGC (site GTTAGAGCTGC),2.22
7,ACACGGACATGGACCGGTTTTCCCGGTAATCCGTATTTGTC (site ACACGCACTGA),0
8,CTGGCATCATGGACCGGTTTTCCCGGTAATCCGTATTTGAC (site CTAGTATCTGT),0
9,GTATTCGCATGGACCGGTTTTCCCGGTAATCCGTATTTGCG (site GTAGTCGCTCG),0.00852
10,CGGAATCCATGGACCGGTTTTCCCGGTAATCCGTATTTGTT (site CGGAATCCTCA),0.00562
11,GGCACGCCATGGACCGGTTTTCCCGGTAATCCGTATTTGTA (site GTCACGCCTTA),0.00471
12,GAGCTCACATGGACCGGTTTTCCCGGTAATCCGTATTTGGT (site GAGCTCACTAT),0.971
13,AAGCACCCATGGACCGGTTTTCCCGGTAATCCGTATTTGGG (site AAGCACGCTCC),0.00747
14,AAGAACGCATGGACCGGTTTTCCCGGTAATCCGTATTTGGG (site AAGAACGCTCC),0.564
15,GCCGCGCCATGGACCGGTTTTCCCGGTAATCCGTATTTGTA (site GCCTCGCCTTA),0.18
16,GAATATTCATGGACCGGTTTTCCCGGTAATCCGTATTTGTT (site GAATATTCTAA),0.948
17,TCCTCCCCATGGACCGGTTTTCCCGGTAATCCGTATTTGCG (site TCCTCCCCTCG),0.00424
18,TGCTCCCCATGGACCGGTTTTCCCGGTAATCCGTATTTGTA (site TGATCCCCTTA),0.0151
19,ACACGAACATGGACCGGTTTTCCCGGTAATCCGTATTTGTG (site ACACGAACTTA),0.766
